Results taken from patent US20040123344A1, “Novel gene encoding an f-box protein which regulates leaf longevity in arabidopsis thaliana and mutant gene thereof” (priority 2000, published 2004).

T1: 35S-labeled ORE9 (50-693), in vitro translated (Arabidopsis thaliana, UniProt Q9SIM9 50-693)
T1 sequence: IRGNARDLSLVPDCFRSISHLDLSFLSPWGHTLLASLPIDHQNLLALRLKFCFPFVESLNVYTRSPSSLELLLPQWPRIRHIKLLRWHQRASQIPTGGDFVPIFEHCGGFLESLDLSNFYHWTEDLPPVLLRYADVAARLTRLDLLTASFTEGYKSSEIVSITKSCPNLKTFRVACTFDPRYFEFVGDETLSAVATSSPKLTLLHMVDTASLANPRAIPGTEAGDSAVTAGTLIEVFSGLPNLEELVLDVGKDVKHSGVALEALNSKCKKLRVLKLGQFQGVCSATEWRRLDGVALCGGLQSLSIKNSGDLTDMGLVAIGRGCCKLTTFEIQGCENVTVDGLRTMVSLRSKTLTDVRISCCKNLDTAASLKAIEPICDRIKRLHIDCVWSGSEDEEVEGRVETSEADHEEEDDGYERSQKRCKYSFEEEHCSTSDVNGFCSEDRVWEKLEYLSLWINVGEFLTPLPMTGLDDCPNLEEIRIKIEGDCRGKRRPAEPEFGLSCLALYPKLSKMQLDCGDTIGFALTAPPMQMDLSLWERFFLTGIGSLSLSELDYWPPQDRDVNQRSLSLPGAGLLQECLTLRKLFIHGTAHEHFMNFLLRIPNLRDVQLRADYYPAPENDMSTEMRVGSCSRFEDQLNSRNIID

B1: GAL4-AD fusion of ASK2(1-172), expressed from pGAD424-ASK2(1-172) [4] (other, Arabidopsis, UniProt Q9FHW7 1-171, looked up, not shown: large carriers)
chain: MSTVRKITLKSSDGENFEIDEAVALESQTIKHMIEDDCTDNGIPLPNVTSKILSKVIEYCKRHVEAAEKSETTADAAAATTTTTVASGSSDEDLKTWDSEFIKVDQGTLFDLILAANYLNIKGLLDLTCQTVADMIKGKTPEEIRKTFNIKNDFTPEEEEEVRRENQWAFE
notes: range 1-172; Yeast two-hybrid prey; also called Arabidopsis SKP1 homolog 2
B2: GAL4-AD fusion of ASK1(1-160), expressed from pGAD424-ASK1(1-160) [3] (other, Arabidopsis, UniProt Q39255 1-160, looked up, not shown: large carriers)
chain: MSAKKIVLKSSDGESFEVEEAVALESQTIAHMVEDDCVDNGVPLPNVTSKILAKVIEYCKRHVEAAASKAEAVEGAATSDDDLKAWDADFMKIDQATLFELILAANYLNIKNLLDLTCQTVADMIKGKTPEEIRTTFNIKNDFTPEEEEEVRRENQWAFE
notes: range 1-160; also called Arabidopsis SKP1 homolog 1; pGAD-ASK1(1-160)[3]
B3: GST-ASK1 fusion protein (other, Arabidopsis, UniProt Q39255 1-160, looked up, not shown: a dimerising Fc or GST)
chain: B2 chain
notes: also called GSK-ASK1

Tests used:
[1] = test system: wild type Arabidopsis thaliana leaves; test: Phytohormone treatment of detached leaves, photosynthetic activity (Fv/Fm of PSII); format: in vivo; conditions: detached leaves at 12 DAE, 50 μM ABA or 50 μM MeJA in MES buffer pH 5.8, or 4.5 μM ethylene gas, three days at 22° C., continuous light
Experimental: (§1) In order to measure photosynthetic activities, a method of Oh S. A. et al., (Oh S. A. et al., Plant Mol. Biol. 30: 939, 1996) was used. First, the respective leaves were dark-treated for 15 minutes and measured for fluorescence of chlorophylls using a plant efficiency analyzer. The photosynthetic activity was expressed as photochemical efficiency of photosystemII (PSII) using a fluorescent property of chlorophylls. The photochemical efficiency was expressed as the ratio of maximum variable fluorescence (Fv) to maximum value of fluorescence (Fm) (Fv/Fm). As the ratio is increased, the photosynthesis efficiency improves.
(§2) Although senescence of leaves is known as a genetic programmed process, the initiation and progress of senescence can be changed by phytohormones, such as abscisic acid (ABA), methyl jasmonate (MeJA) and ethylene, that are plant growth inhibitory substances (Hensel et al., Plant Cell 5:553, 1993; Weidhase et al., Physiol. Plant 69:161, 1987; and Zeevaart et al, Annu. Rev. Plant Physiol. Plant Mol. Biol. 39:439, 1998). Thus, in this experiment, a change in leaf longevity of the ore9 mutant according to treatment with phytohormones was examined by measuring changes in photosynthetic activity and chlorophyll content. Detached leaves were floated in 3 mM 2-[N-morpholino]-ethanesulfonic acid (MES) buffer, pH 5.8, containing 50 μM ABA or 50 μM MeJA, while continuously being exposed to light. Treatment with ethylene was carried out by cultivation in a glass box containing 4.5 μM ethylene gas. The treatments with phytohormones as described above were carried out for three days at 22° C. with continuous exposure to light. At this time, 12 independent leaves at 12 DAE were used as samples, and the chlorophyll content and the photosynthetic activity were measured in the same manner as in Example 2.

ore9 mutant leaves = format: in vivo, Arabidopsis thaliana; conditions: detached leaves at 12 DAE, 50 μM ABA or 50 μM MeJA in MES buffer pH 5.8, or 4.5 μM ethylene gas, three days at 22° C., continuous light
Experimental: as §1, §2

[2] = biological target: T2, GAL4-BD fusion of ORE9 (1-49), expressed from pGBT9-ORE9 (1-49) [1] (Arabidopsis thaliana); test: yeast two-hybrid assay, combination [1+4]
T2 construct: Yeast two-hybrid bait expressed in yeast HF7c; also called fragment containing only the F-box region of ORE9; pGBT-ORE9(1-49)[1]

[3] = biological target: T3, GAL4-BD fusion of ORE9 (50-693), expressed from pGBT9-ORE9 (50-693) [2] (Arabidopsis thaliana); test: yeast two-hybrid assay
T3 construct: Yeast two-hybrid bait expressed in yeast HF7c; also called ORE9 derivative from which the F-box region was removed

[4] = biological target: T1, 35S-labeled ORE9 (50-693), in vitro …; test: in vitro GST pull-down of 35S-labeled protein
Excerpt: In order to examine that ORE9 protein or derivatives thereof directly bind with ASK1, a GST-ASK1 fusion protein and a ³⁵S-labeled ORE9 protein produced by in vitro translation were subjected to in vitro binding assay. To obtain a glutathione S-transferase (GST) protein and a GST-ASK1 fusion protein, a vector pGEX (APBiotech, Co.) and a vector pGEX-ASK1 were constructed, which express the above proteins, respectively. Artificial sequences represented by SEQ ID NO: 14 and SEQ ID NO: 15 were used as PCR primers to amplify a gene encoding the ASK1 fragment. The resulting PCR product was digested with EcoRI and NcoI restriction enzymes, and inserted into the restriction enzyme sites of the pGEX vector. Escherichia coli BL21(DE3) pLysS was transformed with the resulting two vectors, and GST and GST-ASK1 fusion proteins were expressed. The GST and GST-ASK1 fusion proteins were purified by chromatography with glutathione-Sepharose 4B beads. The purified proteins was subjected to electrophoresis with SDS-polyacryamide gets, dyed with Coomassie blue, and measured for their amount. […]
The proteins were quantitatively analyzed with SDS-PAGE and BAS radioanalytic imaging system (Japan). […]

Molecule	photosynthetic activity after treatment [1] [%]	photosynthetic ability maintained after treatment (ore9 mutant leaves) [%]	other results
CC/C=C\CC1C(=O)CCC1CC(=O)OC (stereo not drawn) [MeJA, methyl jasmonate]	38	70	
CC1=CC(=O)CC(C)(C)[C@@]1(O)/C=C/C(C)=C\C(=O)O [ABA, abscisic acid]	65	93	
C=C [ethylene]	54	82	
B1			binding result [2]: no binding
B2			binding result [3]: no binding
B3			binding result [4]: no binding
